Laboratory results as given in PMC11284788, “NN1213 – A Potent, Long-Acting, and Selective Analog of Human Amylin” (Journal of Medicinal Chemistry, 2024).
Values after ≈ are worked out from the molar mass of the structure shown. Numbered stars: 1 amine (or outer) side, 2 acyl side, 3 side chain; on linkers, the order of the positions; unused ones are H or OH. Bridge positions count the residues as written; N and C are the ends. Side chains are listed from the residue outwards. Peptide text beside a SMILES is read from it. * marks the point of attachment. C20 diacid = O=C(O)CCCCCCCCCCCCCCCCCCC(=O)*; γGlu = O=C(O)[C@H](CCC(=O)[*:2])N[*:1]

Experiments:
[1] = ThT assay: fibril formation propensity and peptide recovery; type: physicochemical; details: for ThT, pH 4.0 lag-time: 10 mM glycylglycine pH 4.0, 1 μM ThT; for recovery: residual dissolved peptide after 45 h of shaking, centrifugation and 0.22 μm filtration, HPLC, relative to amount before stress
Outline: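 Peptides at 250 μM in 10 mM glycylglycine (pH 4.0) or HEPES (pH 7.5) with 1 μM ThT, shaken at 37 °C, 960 rpm, for 45 h; ThT fluorescence (ex 444/em 485 nm) read every 20 min. Lag time is the lowest of four replicates (>45 h if none); recovery is soluble peptide by HPLC after centrifugation/filtration, relative to pre-stress.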

[2] = target: T1, hAMY3R (Homo sapiens, UniProt O60896+P30988); test: cAMP-responsive element luciferase reporter assay, human AMY3R; type: cell-based; parameters: expressed in transfected cells; details: ratio of luciferase EC50 values
T1 sequence (P30988 25-474): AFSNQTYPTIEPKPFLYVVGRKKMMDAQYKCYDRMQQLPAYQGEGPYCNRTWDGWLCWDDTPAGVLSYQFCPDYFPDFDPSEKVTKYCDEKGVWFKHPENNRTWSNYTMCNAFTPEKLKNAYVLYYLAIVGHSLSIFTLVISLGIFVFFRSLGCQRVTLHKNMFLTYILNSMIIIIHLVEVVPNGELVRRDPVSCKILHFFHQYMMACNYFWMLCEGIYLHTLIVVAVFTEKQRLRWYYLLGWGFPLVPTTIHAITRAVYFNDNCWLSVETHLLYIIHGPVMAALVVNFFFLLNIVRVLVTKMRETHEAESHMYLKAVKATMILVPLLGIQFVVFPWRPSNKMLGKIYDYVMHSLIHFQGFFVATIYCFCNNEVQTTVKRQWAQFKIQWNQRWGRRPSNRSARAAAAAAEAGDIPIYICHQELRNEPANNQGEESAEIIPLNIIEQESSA
T1 sequence (O60896 24-148 partner): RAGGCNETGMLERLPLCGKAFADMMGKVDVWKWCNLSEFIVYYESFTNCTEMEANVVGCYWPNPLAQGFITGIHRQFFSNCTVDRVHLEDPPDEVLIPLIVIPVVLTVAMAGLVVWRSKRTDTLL

[3] = Solubility versus pH profile
[4] = bis-tris-propane buffer, pH 6, aqueous buffer
[5] = bis-tris-propane buffer, pH 6.5, aqueous buffer
[6] = bis-tris-propane buffer, pH 7, aqueous buffer
[7] = bis-tris-propane buffer, pH 7.5, aqueous buffer
[8] = bis-tris-propane buffer, pH 8, aqueous buffer
[9] = lactate buffer, pH 4, aqueous buffer
[10] = lactate buffer, pH 5, aqueous buffer

| ThT, pH 4.0 lag-time ([1]; 250 μM peptide, 37 °C, 960 rpm, 45 h, lowest of four replicas, average of experiments) | ratio hCTR/hAMY3R [2] | solubility kinetic [3, 4] | solubility kinetic [3, 5] | solubility kinetic [3, 6] | solubility kinetic [3, 7] | solubility kinetic [3, 8] | solubility kinetic [3, 9] | solubility kinetic [3, 10] | ThT, pH 7.5 lag-time ([1]; 250 μM peptide, 10 mM HEPES pH 7.5, 1 μM ThT, 37 °C, 960 rpm, 45 h, lowest of four replicas, average of experiments) | recovery ([1]; pH 7.5) | SMILES | recovery ([1]; pH 4.0) | ThT, pH 4.0 lag-time ([1]; 250 μM peptide, 37 °C, 960 rpm, 45 h, lowest of four replicas, average of experiments, listed as 21) | ratio hCTR/hAMY3R ([2]; listed as 21) |
| --- | --- | --- | --- | --- | --- | --- | --- | --- | --- | --- | --- | --- | --- | --- |
| 7 h | 15 | ≥ 200 µM | ≥ 200 µM | ≥ 200 µM | 183 µM (≈ 812 µg/mL) | 109 µM (≈ 484 µg/mL) | ≥ 200 µM | ≥ 200 µM | – | – | CC[C@H](C)[C@H](NC(=O)[C@H](C)NC(=O)CNC(=O)[C@H](Cc1ccccc1)NC(=O)[C@H](CC(N)=O)NC(=O)[C@@H]1CCCN1C(=O)[C@H](CO)NC(=O)[C@H](CO)NC(=O)[C@H](Cc1c[nH]cn1)NC(=O)[C@H](CCCNC(=N)N)NC(=O)[C@H](CC(C)C)NC(=O)[C@H](Cc1ccccc1)NC(=O)[C@H](CCC(=O)O)NC(=O)[C@H](C)NC(=O)[C@H](CC(C)C)NC(=O)[C@H](CCCNC(=N)N)NC(=O)[C@H](CCC(N)=O)NC(=O)[C@@H](NC(=O)[C@H](C)NC(=O)[C@@H]1CSSC[C@H](NC(=O)[C@@H](N)CCCCNC(=O)CC[C@H](NC(=O)CCCCCCCCCCCCCCCCCCC(=O)O)C(=O)O)C(=O)N[C@@H](CC(N)=O)C(=O)N[C@@H]([C@@H](C)O)C(=O)N[C@@H](C)C(=O)N[C@@H]([C@@H](C)O)C(=O)N1)[C@@H](C)O)C(=O)N1CCC[C@H]1C(=O)N[C@@H](CO)C(=O)N[C@@H](CO)C(=O)N[C@H](C(=O)N[C@@H](CC(N)=O)C(=O)N[C@H](C(=O)NCC(=O)N[C@@H](CO)C(=O)N[C@@H](CCCNC(=N)N)C(=O)N[C@H](C(=O)N[C@@H](Cc1ccc(O)cc1)C(N)=O)[C@@H](C)O)C(C)C)[C@@H](C)O [Peptide 20] (H-K([γGlu-C20 diacid])CNTATCATQRLAEFLRHSSPNFGAIPSSTNVGSRTY-NH2; disulfide 2-7) | 91% | – | – |
| – | 6.9 | 189 µM (≈ 853 µg/mL) | ≥ 200 µM | 195 µM (≈ 880 µg/mL) | ≥ 200 µM | ≥ 200 µM | 96 µM (≈ 433 µg/mL) | 141 µM (≈ 636 µg/mL) | >45 h | 100% | CC(C)C[C@H](NC(=O)[C@H](CCCNC(=N)N)NC(=O)[C@H](CCC(N)=O)NC(=O)[C@@H](NC(=O)[C@H](C)NC(=O)[C@@H]1CSSC[C@H](NC(=O)[C@@H](N)CCCCNC(=O)CC[C@H](NC(=O)CC[C@H](NC(=O)CCCCCCCCCCCCCCCCCCC(=O)O)C(=O)O)C(=O)O)C(=O)N[C@@H](CC(N)=O)C(=O)N[C@@H]([C@@H](C)O)C(=O)N[C@@H](C)C(=O)N[C@@H]([C@@H](C)O)C(=O)N1)[C@@H](C)O)C(=O)N[C@@H](C)C(=O)N[C@@H](CC(=O)O)C(=O)N[C@@H](Cc1ccccc1)C(=O)N[C@@H](CC(C)C)C(=O)N[C@@H](CCCNC(=N)N)C(=O)N[C@@H](Cc1c[nH]cn1)C(=O)N[C@@H](CO)C(=O)N[C@@H](CO)C(=O)N[C@@H](CC(N)=O)C(=O)N1CCC[C@H]1C(=O)N[C@@H](Cc1ccccc1)C(=O)NCC(=O)N[C@@H](C)C(=O)N1CCC[C@H]1C(=O)N[C@@H](CC(C)C)C(=O)N[C@@H](CO)C(=O)N[C@@H](CO)C(=O)N[C@H](C(=O)N[C@@H](CC(N)=O)C(=O)N[C@H](C(=O)NCC(=O)N[C@@H](CO)C(=O)N[C@@H](CC(=O)O)C(=O)N[C@H](C(=O)N[C@@H](Cc1ccc(O)cc1)C(N)=O)[C@@H](C)O)C(C)C)[C@@H](C)O [Peptide 7] (H-K([γGlu-γGlu-C20 diacid])CNTATCATQRLADFLRHSSNPFGAPLSSTNVGSDTY-NH2; disulfide 2-7) | – | – | – |

| SMILES | ThT, pH 4.0 lag-time ([1]; 250 μM peptide, 37 °C, 960 rpm, 45 h, lowest of four replicas, average of experiments) | ratio hCTR/hAMY3R [2] | solubility kinetic [3, 4] | solubility kinetic [3, 5] | solubility kinetic [3, 6] | solubility kinetic [3, 7] | solubility kinetic [3, 8] | solubility kinetic [3, 9] | solubility kinetic [3, 10] | ThT, pH 7.5 lag-time ([1]; 250 μM peptide, 10 mM HEPES pH 7.5, 1 μM ThT, 37 °C, 960 rpm, 45 h, lowest of four replicas, average of experiments) | recovery ([1]; pH 7.5) | recovery ([1]; pH 4.0) | ThT, pH 4.0 lag-time ([1]; 250 μM peptide, 37 °C, 960 rpm, 45 h, lowest of four replicas, average of experiments, listed as 21) | ratio hCTR/hAMY3R ([2]; listed as 21) |
| --- | --- | --- | --- | --- | --- | --- | --- | --- | --- | --- | --- | --- | --- | --- |
| CC[C@H](C)[C@H](NC(=O)[C@H](C)NC(=O)CNC(=O)[C@H](Cc1ccccc1)NC(=O)[C@H](CC(N)=O)NC(=O)[C@@H]1CCCN1C(=O)[C@H](CO)NC(=O)[C@H](CO)NC(=O)[C@H](Cc1c[nH]cn1)NC(=O)[C@H](CCCNC(=N)N)NC(=O)[C@H](CC(C)C)NC(=O)[C@H](Cc1ccccc1)NC(=O)[C@H](CC(=O)O)NC(=O)[C@H](C)NC(=O)[C@H](CC(C)C)NC(=O)[C@H](CCCNC(=N)N)NC(=O)[C@H](CCC(N)=O)NC(=O)[C@@H](NC(=O)[C@H](C)NC(=O)[C@@H]1CSSC[C@H](NC(=O)[C@@H](N)CCCCNC(=O)CC[C@H](NC(=O)CC[C@H](NC(=O)CCCCCCCCCCCCCCCCCCC(=O)O)C(=O)O)C(=O)O)C(=O)N[C@@H](CC(N)=O)C(=O)N[C@@H]([C@@H](C)O)C(=O)N[C@@H](C)C(=O)N[C@@H]([C@@H](C)O)C(=O)N1)[C@@H](C)O)C(=O)N1CCC[C@H]1C(=O)N[C@@H](CO)C(=O)N[C@@H](CO)C(=O)N[C@H](C(=O)N[C@@H](CC(N)=O)C(=O)N[C@H](C(=O)NCC(=O)N[C@@H](CO)C(=O)N[C@@H](CCCNC(=N)N)C(=O)N[C@H](C(=O)N[C@@H](Cc1ccc(O)cc1)C(N)=O)[C@@H](C)O)C(C)C)[C@@H](C)O [NN1213] | – | – | ≥ 200 µM | ≥ 200 µM | 155 µM (≈ 706 µg/mL) | 106 µM (≈ 483 µg/mL) | 110 µM (≈ 501 µg/mL) | ≥ 200 µM | ≥ 200 µM | – | – | 96% | 42 h | 29 |
